PMC3457657 (Medicinal chemistry research : an international journal for …, 2011)
Read-outs that look alike come from different tables or passages of the source.

How the values were obtained:
[1] = system: S. aureus; conditions: ref Desbois et al., 2008; cited from earlier work
[2] = system: Cryptococcus neoformans ATCC 90113; assay: In vitro antimicrobial; type: cell-based; conditions: ATCC90113, read-out: IC50 Antifungal C. neoformans
[3] = system: Staphylococcus aureus ATCC 29213; assay: In vitro antimicrobial; type: cell-based; conditions: ATCC29213, read-out: IC50 Antibacterial S. aureus
[4] = ref Mikaye et al., 2009; Ishikawa et al., 1984; Li et al., 2006; cited from earlier work
[5] = system: HeLa cells; conditions: cited from earlier work
[6] = system: mouse skin tumor promotion; conditions: two-stage carcinogenesis; ref Mikaye et al., 2010; cited from earlier work
[7] = system: mitochondrial respiration; conditions: ref Kawai et al., 1986; cited from earlier work
[8] = system: sex cells of the sea urchin Strongylocentrotus intermedius; conditions: at a concentration of 0.5 mg/l; ref Smetanina et al., 2007; cited from earlier work
[9] = system: methicillin-resistant S. aureus ATCC 33591 (MRS); assay: In vitro antimicrobial; type: cell-based; conditions: Staphylococcus aureus, ATCC33591, read-out: IC50 Antibacterial MRS
[10] = system: P. falciparum chloroquine-resistant strain (W2, Indo China); assay: In vitro antimalarial activity, plasmodial LDH activity; type: cell-based, Plasmodium falciparum; conditions: chloroquine-resistant strain W2, 72 h
[11] = system: P. falciparum chloroquine-sensitive strain (D6, Sierra Leone); assay: as above; type: cell-based, Plasmodium falciparum; conditions: chloroquine-sensitive strain D6, 72 h
[12] = ref Mori et al., 1984; cited from earlier work
[13] = ref Ali et al., 1989; cited from earlier work
[14] = ref Vesonder et al., 1988; cited from earlier work
[15] = ref Vesonder et al., 1988; cited from earlier work; remark: listed apart in the source
[16] = ref Fujimoto et al. 1999; cited from earlier work
[17] = system: visceral and cutaneous leishmaniasis; conditions: oral drug, ref Berman, 2008; cited from earlier work

Row | Compound | IC50 [2] [µg/mL] | IC50 [3] [µg/mL] | antioxidant activity and radical scavenging activity against DPPH [4] | inhibition of mouse skin tumor promotion [6] | IC50 [9] [µg/mL] | further results
1 | CCCCCC/C=C\CCCCCCCC(=O)O [(9Z)-hexadecenoic acid] |  |  |  |  |  | potency against S. aureus relative to (6Z, 9Z, 12Z)-hexadecatrienoic acid (HTA) [1]: about twice as much
2 | CCCCC/C=C/c1c(O)cc(CC=C(C)C)c(O)c1CO [Compound 1, (E)-2-(hept-1-enyl)-3-(hydroxymethyl)-5-(3-methylbut-2-enyl)benzene-1,4-diol] | > 20 | > 20 |  |  |  | 
3 | CCCCCCCc1c(O)cc(CC=C(C)C)c(O)c1C=O [Compound 2, flavoglaucin] | > 20 |  | antioxidant activity and radical scavenging activity | inhibited |  | cytotoxicity to HeLa cells [5]: cytotoxic; mitochondrial respiration [7]: inhibited mitochondrial respiration; mitochondrial swelling [7]: induced mitochondrial swelling
4 | CCCCC/C=C/c1c(O)cc(CC=C(C)C)c(O)c1C=O [Compound 3, tetrahydroauroglaucin] | > 20 |  | antioxidant activity and radical scavenging activity | inhibited | > 20 | cytotoxic activity against sex cells of the sea urchin [8]: cytotoxic activity
5 | CCC/C=C/C=C/c1c(O)cc(CC=C(C)C)c(O)c1C=O [Compound 4, dihydroauroglaucin] | > 20 | > 20 | antioxidant activity and radical scavenging activity | inhibited | > 20 | IC50 Antimalarial P. falciparum W2 [10]: inactive; IC50 Antimalarial P. falciparum D6 [11]: inactive
6 | C/C=C/C=C/C=C/c1c(O)cc(CC=C(C)C)c(O)c1C=O [Compound 5, auroglaucin] | > 20 | > 20 | antioxidant activity and radical scavenging activity | inhibited | > 20 | 
7 | CCC/C=C/c1cc2c(C=O)c(O)c(CC=C(C)C)cc2o1 [Compound 6, 2-(2′,3-epoxy-1′,3′-heptadienyl)-6-hydroxy-5-(3-methyl-2-butenyl)benzaldehyde] |  |  | antioxidant activity and radical scavenging activity |  |  | IC50 Antimalarial P. falciparum W2 [10]: inactive; IC50 Antimalarial P. falciparum D6 [11]: inactive
8 | C=CC(C)(C)c1[nH]c2c(CC=C(C)C)cc(CC=C(C)C)cc2c1C[C@@H]1NC(=O)[C@H](C)NC1=O [Compound 7, echinulin] | > 20 | > 20 |  |  | > 20 | cytotoxicity to HeLa cells ([5]; at the concentration of 100 mg/l, ref Umeda et al., 1974, Wang et al., 2006): cytotoxicity; genotoxicity [12]: not genotoxic; organ damage (alveolar, liver) [13]: severe damage of alveolar organization and thickening of alveolar walls and liver damage; concentration in food that swine refused to eat [14]: 8 ng/mL; concentration in the water causing drinking refusal in mice [15]: 90000 ng/mL
9 | Cc1c(O)cc(O)c2c1COC2=O [Compound 8, 5,7-dihydroxy-4-methylphthalide] |  | > 20 |  |  | > 20 | immunosuppressive activity [16]: immunosuppressive activity
10 | CCCCCCCCCCCCCCCCOP(=O)([O-])OCC[N+](C)(C)C [Miltefosine] |  |  |  |  |  | cure rates [17]: about 98%
